The record followed here is ChEMBL document CHEMBL1138640, “Synthesis, radiolabeling, and preliminary biological evaluation of [3H]-1-[(S)-N,O-bis-(isoquinolinesulfonyl)-N-methyl-tyrosyl]-4-(o-tolyl)-piperazine, a potent antagonist radioligand for the P2X7 receptor” (Bioorg Med Chem Lett, 2004).

The target in experiment [1] is T1, P2X purinoceptor 7 (Homo sapiens, UniProt Q99572).
T1 sequence (Q99572 whole entry): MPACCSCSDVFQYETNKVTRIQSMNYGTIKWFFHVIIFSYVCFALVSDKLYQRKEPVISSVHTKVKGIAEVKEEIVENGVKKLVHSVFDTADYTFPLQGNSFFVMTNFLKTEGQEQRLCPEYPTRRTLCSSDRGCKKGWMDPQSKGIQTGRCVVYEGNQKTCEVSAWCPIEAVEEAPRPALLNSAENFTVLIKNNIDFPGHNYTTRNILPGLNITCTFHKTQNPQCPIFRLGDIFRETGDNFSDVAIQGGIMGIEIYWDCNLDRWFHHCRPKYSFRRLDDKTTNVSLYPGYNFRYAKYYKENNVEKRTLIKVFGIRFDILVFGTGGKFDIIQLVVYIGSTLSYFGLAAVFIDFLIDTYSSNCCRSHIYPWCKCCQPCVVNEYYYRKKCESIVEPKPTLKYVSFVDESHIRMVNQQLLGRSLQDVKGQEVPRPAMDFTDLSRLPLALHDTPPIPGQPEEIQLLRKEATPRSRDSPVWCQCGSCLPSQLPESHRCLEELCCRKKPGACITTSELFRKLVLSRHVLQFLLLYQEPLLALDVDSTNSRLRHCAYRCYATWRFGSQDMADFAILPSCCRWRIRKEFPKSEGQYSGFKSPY
The experiment can be described thus: Maximum binding affinity towards P2X purinoceptor 7 expressed in HEK 293 cells. It is filed as cell-based, HEK293.

Experiment [2] relates to Cell line. Put plainly: inhibitory concentration against ATP-dependant calcium influx across plasma membrane of human monocytes. It is filed as functional, cell-based.
Experiment [3] addresses T2, P2X purinoceptor 7 (Homo sapiens) (UniProt Q99572).
T2 sequence (whole entry): T1 sequence (Q99572 whole entry)
Conditions: HEK293.
Description: Association rate constant towards P2X purinoceptor 7 expressed in HEK 293 cells

The target in experiment [4] is T1, P2X purinoceptor 7. The experiment can be described thus: Equilibrium constant for P2X purinoceptor 7 expressed in HEK 293 cells at 1 uM. Format: cell-based, HEK293.
For experiment [5], the target named is T2, P2X purinoceptor 7 (Homo sapiens). Particulars: HEK293, 1 uM.
Description: Dissociation rate constant for P2X purinoceptor 7 expressed in HEK 293 cells at 1 uM

Turning to `Cc1ccccc1N1CCN(C(=O)[C@H](Cc2ccc(OS(=O)(=O)c3cccc4cnccc34)cc2)N(C)S(=O)(=O)c2cccc3cnccc23)CC1`, the dissociation constant Kd in experiment [1] and in experiment [4] was 3.57 nM in each case. Also, the IC50 in experiment [2] came to 15 nM. Also, in experiment [3], the k obs was 0.000767 s⁻¹. For the same compound, the K-1 in experiment [5] was found to be 0.025 min⁻¹.
Take `CN([C@@H](Cc1ccc(OS(=O)(=O)c2cccc3cnccc23)cc1)C(=O)N1CCN(c2ccccc2)CC1)S(=O)(=O)c1cccc2cnccc12`: the IC50 in experiment [2] came out at 51 nM.
